“And” between values parts separate entries of the source, which are not always exact repeats. Identical values can stand only once. Like-named read-outs stand apart in the source and are kept apart here.
How the values were obtained:
[1] = test system: T1, Plasmodium falciparum Dd2-attB (parental line), asexual blood stages; test: microbe, parasite or virus in culture; design: replicate k of 3 (each line is one of three independent assays; the three lines of one compound and parasite line follow each other); settings: n = 1; for AC50: Plasmodium falciparum, DD2, 72 h, read-out: Individual replicates / Log AC50 (converted); for Individual replicates / Log AC50 (M): 72 h
T1 construct: Dd2-attB, the isogenic parental line
Protocol: (§1) The overexpression of the fumarate-dependent yeast DHODH confers resistance to compounds that inhibit the parasite mETC, or the parasite DHODH enzyme that depends on ubiquinone provided by the parasite mETC. Assays were performed in three independent assays on a subset of compounds, and differences between the Dd2-attB parental line and the ScDHODH transgenic line were analyzed using two-sided Student’s t-tests.

[2] = test system: P. berghei-ANKA-GFP-LucCON liver stage parasites in HepG2-A16-CD81EGFP cells; test: P. berghei liver stage Pb-Luc assay, Method 1 (UCSD, 1536-well); assay type: cell-based, Plasmodium berghei; settings: Plasmodium berghei, 48 h, average of 2 wells, 1536-well plate; for activity at 1 µM: nominal 1 uM (10 mM stock), […] for 15 mM, 1.2 uM for 12 mM, 2 uM for 20 mM stock; for activity at 3 µM: nominal 3 uM (10 mM stock), 4.5 uM for 15 mM, 3.6 uM for 12 mM, 6 uM for 20 mM stock; for all read-outs here: reference of the scale not given here
[3] = test system: Plasmodium falciparum Dd2 asexual blood stage parasites; test: microbe, parasite or virus in culture; design: species or system Plasmodium falciparum Dd2 in human erythrocytes; single determination (one 11-point concentration-response curve); settings: Plasmodium falciparum, DD2, Erythrocyte, 72 h; read-out: AC50
in vitro = settings: human
[4] = test system: T2, Plasmodium falciparum Dd2-attB-ScDHODH (transgenic line expressing yeast DHODH), asexual blood stages; test: organism not typed; design: replicate k of 3 (each line is one of three independent assays; the three lines of one compound and parasite line follow each other); settings: 72 h; n = 1; read-out: Individual replicates / Log AC50 (converted)
T2 construct: Dd2-attB-ScDHODH, the transgenic line that expresses yeast DHODH
Protocol: as §1

[5] = repeat 1, read-out: Pb-Luc signal, 1 uM, repeat 1
[6] = repeat 2, read-out: Pb-Luc signal, 1 uM, repeat 2
[7] = repeat 3, read-out: Pb-Luc signal, 1 uM, repeat 3
[8] = repeat 1, read-out: Pb-Luc signal, 3 uM, repeat 1
[9] = repeat 2, read-out: Pb-Luc signal, 3 uM, repeat 2
[10] = repeat 3, read-out: Pb-Luc signal, 3 uM, repeat 3
[11] = nominal 1 uM (10 mM stock), […] for 15 mM, 1.2 uM for 12 mM, 2 uM for 20 mM stock, average of 2 wells, repeat 2
[12] = nominal 3 uM (10 mM stock), 4.5 uM for 15 mM, 3.6 uM for 12 mM, 6 uM for 20 mM stock, average of 2 wells, repeat 2
[13] = HepG2-A16-CD81EGFP cells, uninfected

## O=C(O)c1ccc(O)c2ncc(N3CCCCC3CCc3ccccn3)cc12 (stereo not shown) [NCGC00241756-01]
[1]
  AC50: 20 µM

## O=C(c1ccccc1F)N1c2nc(-c3ccco3)nn2C2(CCCCC2)[C@@H]2CCCC[C@@H]21 [NCGC00118206-02]
[1]
  Individual replicates / Log AC50 (M): -4.7986 Log AC50 (M)
  AC50: 15.9 µM

## CCOC(=O)CCNc1cc(N2CCc3ccccc3CC2)nc(-c2ccccn2)n1 [NCGC00344626-02]
[1]
  Individual replicates / Log AC50 (M): -5.0486 Log AC50 (M) and -5.0986 Log AC50 (M)
  AC50: 6.33 µM

## Cc1nn2c(c1-c1ccccc1-c1ccccc1)N(Cc1ccccc1)CCC2 [NCGC00420451-02]
[1]
  AC50: 15.9 µM

## CN1CCN(c2cnc3c(O)ccc(C(=O)O)c3c2)CC1 [NCGC00241033-01]
[1]
  Individual replicates / Log AC50 (M): -4.8986 Log AC50 (M) and -4.9486 Log AC50 (M)
  AC50: 17.8 µM

## Cc1cccc(N2CCN(C(=O)Cn3ncc4c3-c3ccccc3OC4)CC2)c1C [NCGC00112661-02]
[1]
  AC50: 14.2 µM

## O=C(O)c1ccc(O)c2ncc(N3CCN(Cc4ccccc4)CC3)cc12 [NCGC00241045-04]
[1]
  Individual replicates / Log AC50 (M): -4.6986 Log AC50 (M) and -4.7986 Log AC50 (M) (2×)

## O=C(O)c1ccc(O)c2ncc(N3CCN(Cc4ccccc4)CC3)cc12 [NCGC00241045-03]
[1]
  AC50: 17.8 µM

## Cc1nnc2c3ccccc3nc(N3CCN(c4ccccc4)CC3)n12 [NCGC00107295-02]
[1]
  Individual replicates / Log AC50 (M): -4.8986 Log AC50 (M) and -4.9986 Log AC50 (M)

## Cc1ccc(CN2C(=O)C(O)(CC(=O)c3ccc(C)cc3)c3ccccc32)cc1 (stereo not shown) [NCGC00099997-03]
[1]
  AC50: 17.8 µM

## c1ccc(CN2CCCn3ncc(-c4ccccc4-c4ccccc4)c32)cc1 [NCGC00499205-01]
[1]
  Individual replicates / Log AC50 (M): -4.8486 Log AC50 (M)
  AC50: 15.9 µM

## CN1CCC(CNCc2nccc3c(=O)[nH]c(COc4ccc(Cc5ccccc5)cc4)nc23)C1 (stereo not shown) [NCGC00489856-02]
[1]
  Individual replicates / Log AC50 (M): -4.7486 Log AC50 (M)

## COc1cc2c(cc1OCc1ccccc1)N(C(=O)c1cc3ccccc3[nH]1)CC21CCN(C)CC1 [NCGC00419851-01]
[2]; [5]
  activity at 1 µM: 59.5%
[2]; [6]
  activity at 1 µM: 89.6%
[2]; [7]
  activity at 1 µM: 74.1%
[2]; [8]
  activity at 3 µM: 16.8%
[2]; [9]
  activity at 3 µM: 54.6%
[2]; [10]
  activity at 3 µM: 95.7%
[3]
  AC50: 944 nM
HepG2-A16-CD81EGFP cells; human, 48 h, 1 µM
  HepG2 viability signal, 1 uM, repeat 2: 101.97%
HepG2-A16-CD81EGFP cells; human, 48 h, 3 µM
  HepG2 viability signal, 3 uM, repeat 2: 102.28%
In vitro
  viability at 48 h, 1 µM: 99%
  viability at 48 h, 3 µM: 98.9%

## CN(C)CCCCCCNC(=O)c1cccc(-c2cc(O)c3ncccc3c2)c1 [NCGC00247743-01]
[1]
  AC50: 20 µM

## Cc1nn2c(c1-c1ccnn1C(C)C)N(CCCc1ccccc1)CCC2 [NCGC00499719-01]
[4]
  AC50: 17.8 µM

## O=C(NCCCN1CCNCC1)c1cccc(-c2cc(O)c3ncccc3c2)c1 [NCGC00244531-01]
[1]
  AC50: 15.9 µM

## Cc1ccc2oc(=O)c3cnn(CC(=O)Nc4cccc(C(F)(F)F)c4)c3c2c1 [NCGC00110933-01]
[2]; [5]
  activity at 1 µM: 106%
[2]; [6]
  activity at 1 µM: 124%
[2]; [7]
  activity at 1 µM: 113%
[2]; [8]
  activity at 3 µM: 86.9%
[2]; [9]
  activity at 3 µM: 117%
[2]; [10]
  activity at 3 µM: 100%
[3]
  AC50: 2660 nM
HepG2-A16-CD81EGFP cells; [11]
  HepG2 viability signal, 1 uM, repeat 2: 99.44%
HepG2-A16-CD81EGFP cells; [12]
  HepG2 viability signal, 3 uM, repeat 2: 101.21%
In vitro; [13]
  viability at 48 h, 1 µM: 94%
  viability at 48 h, 3 µM: 94.8%

## c1ccc(Nc2cc3c(cn2)CN(Cc2ccc4[nH]ccc4c2)CCN3)cc1 [NCGC00411105-01]
[2]; [5]
  activity at 1 µM: 55.9%
[2]; [6]
  activity at 1 µM: 72.5%
[2]; [7]
  activity at 1 µM: 17.8%
[2]; [8]
  activity at 3 µM: 23.8%
[2]; [9]
  activity at 3 µM: 30.2%
[2]; [10]
  activity at 3 µM: 10.7%
[3]
  AC50: 1370 nM
HepG2-A16-CD81EGFP cells; [11]
  HepG2 viability signal, 1 uM, repeat 2: 44.56%
HepG2-A16-CD81EGFP cells; [12]
  HepG2 viability signal, 3 uM, repeat 2: 55.41%
In vitro; [13]
  viability at 48 h, 1 µM: 40.4%
  viability at 48 h, 3 µM: 43.5%

From publication PMC7822874, “Chemoprotective antimalarials identified through quantitative high-throughput screening of Plasmodium blood and liver stage parasites” (Scientific Reports, 2021)
